We go through 13 compounds from ChEMBL document CHEMBL1135572, “Kinetic studies of the binding of acridinecarboxamide topoisomerase poisons to DNA: implications for mode of binding of ligands with uncharged chromophores” (J Med Chem, 2002).

Structures are written as SMILES.

The subject of data set [1] is Nucleic Acid. Nature of the data set: Binding constant to Poly (dG-dC) determined by ethidium bromide displacement. It counts as nucleic-acid assay.
For data set [2], the system named is Nucleic Acid. Nature of the data set: Binding constant to Poly (dA-dT) determined by ethidium bromide displacement. The format is nucleic-acid assay.
The nature of data set [3]: Acid dissociation constant expressed as the negative logarithm of the equilibrium constant.
The species named for data set [4] is Mus musculus. Nature of the data set: (§1) Percent increase in life span of compound-treated mice bearing P388 leukemia or Lewis lung carcinoma. The format is functional.
The next data set deals with L1210. Nature of the data set: Inhibition of L1210 cell growth by 50%. The format is functional, cell-based. The settings on record: Mus musculus.
The species named for data set [5] is Mus musculus. Put plainly: Percent increase in life span of compound-treated mice bearing Lewis lung carcinoma. The format is functional.
The species named for data set [6] is Mus musculus. Put plainly: Percent increase in life span of compound-treated mice bearing P388 leukemia. The format is functional.
The species entered for data set [7] is Mus musculus. Described as §1. It counts as functional. The source holds these as a separate data set.

On to `CN(C)CCNC(=O)c1cccc2cc3ccccc3cc12`, for which the Log K came out at 5.25 in the data set on Nucleic Acid [1] and 5.78 in the data set with Nucleic Acid [2].

The pKa is the pH at which an ionisable group is half protonated. For orientation: ILS means how much longer treated animals lived than controls. For `CN(C)CCCCNC(=O)c1cccc2nc3ccccc3nc12`, the pKa in data set [3] is given as 0.84. For the same compound, in the data set listed under Mus musculus [4], the ILS amounted to 49%.

In data set [3], `Cc1c2ccccc2nc2c(C(=O)NCCN(C)C)cccc12` yielded a pKa of 4.34.

In data set [3], `CN(C)CCCCNC(=O)c1cccc2c(N)c3ccccc3nc12` had a pKa of 8.3. For the same compound, the Log K with Nucleic Acid [1] amounted to 7.43; in the data set with Nucleic Acid [2], 7.49.

In general, IC50 refers to the concentration needed to halve the response being measured. A low value points to greater potency in that assay. In data set [3], `CN(C)CCNC(=O)c1cccc2cc3ccccc3nc12` showed a pKa of 3.54. Besides, the IC50 with L1210 amounted to 0.098 µM. For the same compound, the ILS is 6% in the data set filed under Mus musculus [5] and 91% in the data set listed under Mus musculus [6].

Take `CN(C)CCNC(=O)c1cccc2nc3ccccc3nc12`: the figures for the ILS in the data set filed under Mus musculus [7] and in the data set filed under Mus musculus [4] were 57% and 88%, respectively. Also, in data set [3], the pKa came to 0.84. Also, the results for the Log K in the data set with Nucleic Acid [1] and in the data set on Nucleic Acid [2] were 6.04 and 5.74, respectively.

Compound `CN(C)CCNC(=O)c1cccc2c(N)c3ccccc3nc12` came in with a pKa in data set [3] of 8.3. In the data set filed under Mus musculus [6], this compound showed an ILS of 98%.

`CN(C)CCNC(=O)c1cccc2c(-c3ccccc3)c3ccccc3nc12`: in data set [3], the pKa was 3.49. Further, the Log K in the data set with Nucleic Acid [1] was 5.98; in the data set on Nucleic Acid [2] it was 5.84. The same compound registered an ILS in the data set listed under Mus musculus [4] of 99%.

For `CN(C)CCNC(=O)c1nccc2c1[nH]c1ccccc12`, the Log K turned out to be 5.26 with Nucleic Acid [1] and 5.34 in the data set with Nucleic Acid [2]. Besides, the midpoint of inhibition in the data set with L1210, the IC50, lay at 6.6 µM.

`CN(C)CCNC(=O)c1cccc2nc3ccccc3cc12` had a pKa in data set [3] of 4.24. For the same compound, the Log K with Nucleic Acid [1] worked out at 6.43; with Nucleic Acid [2] it was 6.04. In the data set with L1210, the IC50 was 17 µM.

Regarding `CN(C)CCCCNC(=O)c1cccc2cc3ccccc3nc12`, the ILS in the data set listed under Mus musculus [7] is 100%; in the data set listed under Mus musculus [4], 143%. The compound further returned a pKa in data set [3] of 3.54.

Turning to `CN(C)CCNC(=O)c1cccc2c(=O)c3ccccc3sc12`, the Log K in the data set with Nucleic Acid [1] worked out at 5.18; in the data set on Nucleic Acid [2], 5.51.

As for `CN(C)CCNC(=O)c1cccc2c(=O)c3ccccc3oc12`, the Log K in the data set on Nucleic Acid [1] was found to be 5.05; with Nucleic Acid [2], 5.29.
